According to the NIST ThermoML archive (doi:10.1021/acs.jced.6b00430):
± gives the expanded uncertainty stated by the source.

Experiment: xn = mol fraction of the nth substance listed
Details: 100 kPa, Liquid; for mass density: Vibrating tube method; for electrical conductivity: Alternating current cell with electrodes; for viscosity: Concentric cylinders viscometry

O=[PH](O)O [phosphonic acid] + CN(C)C=O
Details	electrical conductivity [S/m]	mass density [kg/m3]	viscosity [mPa·s]
318.15 K, x1 = 0.421	–	1170.67 ± 10	–
318.15 K, x1 = 0.4479	–	1189.61 ± 10	–
318.15 K, x1 = 0.4707	–	1204.42 ± 10	–
318.15 K, x1 = 0.493	–	1218.59 ± 10	–
318.15 K, x1 = 0.5074	–	1227.51 ± 10	–
318.15 K, x1 = 0.5196	–	1237.92 ± 10	–
318.15 K, x1 = 0.5429	–	1253.45 ± 10	–
318.15 K, x1 = 0.5724	–	1275.06 ± 10	–
318.15 K, x1 = 0.5925	–	1289.1 ± 10	–
318.15 K, x1 = 0.6245	–	1311.81 ± 10	–
318.15 K, x1 = 0.6554	–	1339.01 ± 10	–
318.15 K, x1 = 0.6753	–	1347.93 ± 10	–
318.15 K, x1 = 0.6923	–	1362.29 ± 10	–
318.15 K, x1 = 0.7142	–	1382.56 ± 10	–
318.15 K, x1 = 0.725	–	1385.03 ± 10	–
318.15 K, x1 = 0.7592	–	1416.55 ± 10	–
318.15 K, x1 = 0.7694	–	1427.77 ± 10	–
318.15 K, x1 = 0.7845	–	1434.51 ± 10	–
328.15 K, x1 = 0.0911	–	962.58 ± 10	–
328.15 K, x1 = 0.1181	0.0815 ± 0.0082	–	–
328.15 K, x1 = 0.1365	–	987.46 ± 10	–
328.15 K, x1 = 0.1798	–	1011.93 ± 10	–
328.15 K, x1 = 0.1829	–	1013.72 ± 10	–
328.15 K, x1 = 0.1973	–	–	1.92 ± 0.12
328.15 K, x1 = 0.2293	–	1040.86 ± 10	–
328.15 K, x1 = 0.2507	–	–	2.88 ± 0.17
328.15 K, x1 = 0.291	–	1078.19 ± 10	–
328.15 K, x1 = 0.2984	0.173 ± 0.017	–	4.07 ± 0.25
328.15 K, x1 = 0.3115	–	–	4.29 ± 0.26
328.15 K, x1 = 0.3298	0.183 ± 0.018	1102.77 ± 10	–
328.15 K, x1 = 0.3442	–	1111.65 ± 10	–
328.15 K, x1 = 0.3491	–	–	6.02 ± 0.36
328.15 K, x1 = 0.3712	–	1129.07 ± 10	–
328.15 K, x1 = 0.3937	–	1143.78 ± 10	–
328.15 K, x1 = 0.3968	0.275 ± 0.028	–	8.65 ± 0.52
328.15 K, x1 = 0.3988	–	–	8.5 ± 0.51
328.15 K, x1 = 0.4107	–	1155.04 ± 10	9.62 ± 0.58
328.15 K, x1 = 0.421	–	1161.92 ± 10	–
328.15 K, x1 = 0.4479	0.316 ± 0.032	1180.89 ± 10	12.3 ± 0.7
328.15 K, x1 = 0.4707	–	1195.74 ± 10	–
328.15 K, x1 = 0.493	–	1211.17 ± 10	–
328.15 K, x1 = 0.4968	–	–	16.2 ± 1
328.15 K, x1 = 0.5074	–	1221.28 ± 10	16 ± 1
328.15 K, x1 = 0.5196	–	1229.86 ± 10	–
328.15 K, x1 = 0.5429	–	1246.5 ± 10	–
328.15 K, x1 = 0.5503	–	–	22 ± 1.3
328.15 K, x1 = 0.5724	–	1267.84 ± 10	–
328.15 K, x1 = 0.5761	0.512 ± 0.051	–	24.9 ± 1.5
328.15 K, x1 = 0.5925	–	1282.63 ± 10	–
328.15 K, x1 = 0.5993	–	–	25.5 ± 1.5
328.15 K, x1 = 0.6245	–	1306.4 ± 10	–
328.15 K, x1 = 0.6261	–	–	29.5 ± 1.8
328.15 K, x1 = 0.6316	0.71 ± 0.071	–	30.1 ± 1.8
328.15 K, x1 = 0.6478	–	–	32.2 ± 1.9
328.15 K, x1 = 0.6554	0.802 ± 0.08	1330.73 ± 10	32 ± 1.9
328.15 K, x1 = 0.682	1.07 ± 0.11	–	34.4 ± 2.1
328.15 K, x1 = 0.7142	–	1375.29 ± 10	37.1 ± 2.2
328.15 K, x1 = 0.725	–	1383.85 ± 10	–
328.15 K, x1 = 0.7592	–	1411.1 ± 10	–
328.15 K, x1 = 0.7694	1.77 ± 0.18	1419.7 ± 10	39.8 ± 2.4
328.15 K, x1 = 0.7832	1.91 ± 0.19	–	40.5 ± 2.4
328.15 K, x1 = 0.7845	–	1430.74 ± 10	–
338.15 K, x1 = 0.0911	–	954.96 ± 10	–
338.15 K, x1 = 0.1365	–	979.11 ± 10	–
338.15 K, x1 = 0.1798	–	1003.68 ± 10	–
338.15 K, x1 = 0.1829	–	1004.95 ± 10	–
338.15 K, x1 = 0.1973	–	–	1.67 ± 0.1
338.15 K, x1 = 0.2293	–	1032.82 ± 10	–
338.15 K, x1 = 0.2507	–	–	2.45 ± 0.15
338.15 K, x1 = 0.291	–	1068.59 ± 10	–
338.15 K, x1 = 0.2984	0.212 ± 0.021	–	3.49 ± 0.21
338.15 K, x1 = 0.3115	–	–	3.66 ± 0.22
338.15 K, x1 = 0.3298	0.226 ± 0.023	1093.82 ± 10	–
338.15 K, x1 = 0.3442	–	1102.06 ± 10	–
338.15 K, x1 = 0.3491	–	–	5.02 ± 0.3
338.15 K, x1 = 0.3712	–	1119.72 ± 10	–
338.15 K, x1 = 0.3937	–	1133.99 ± 10	–
338.15 K, x1 = 0.3968	0.351 ± 0.035	–	7 ± 0.42
338.15 K, x1 = 0.3988	–	–	6.98 ± 0.42
338.15 K, x1 = 0.4107	–	1155.74 ± 10	7.75 ± 0.47
338.15 K, x1 = 0.421	–	1160.23 ± 10	–
338.15 K, x1 = 0.4479	0.356 ± 0.036	1172.2 ± 10	9.91 ± 0.6
338.15 K, x1 = 0.4707	–	1187.28 ± 10	–
338.15 K, x1 = 0.493	–	1201.35 ± 10	–
338.15 K, x1 = 0.4968	–	–	12.7 ± 0.8
338.15 K, x1 = 0.5074	–	1210.34 ± 10	11.6 ± 0.7
338.15 K, x1 = 0.5196	–	1220.86 ± 10	–
338.15 K, x1 = 0.5429	–	1236.41 ± 10	–
338.15 K, x1 = 0.5503	–	–	17.2 ± 1
338.15 K, x1 = 0.5724	–	1258.27 ± 10	–
338.15 K, x1 = 0.5761	0.642 ± 0.064	–	18.7 ± 1.1
338.15 K, x1 = 0.5925	–	1272.25 ± 10	–
338.15 K, x1 = 0.5993	–	–	19.2 ± 1.2
338.15 K, x1 = 0.6245	–	1295.1 ± 10	–
338.15 K, x1 = 0.6261	–	–	22.6 ± 1.4
338.15 K, x1 = 0.6316	0.891 ± 0.089	–	22.3 ± 1.3
338.15 K, x1 = 0.6478	–	–	23.8 ± 1.4
338.15 K, x1 = 0.6554	1.06 ± 0.11	1322.46 ± 10	23.6 ± 1.4
338.15 K, x1 = 0.6753	–	1331.43 ± 10	–
338.15 K, x1 = 0.682	1.39 ± 0.14	–	25.2 ± 1.5
338.15 K, x1 = 0.6923	–	1345.85 ± 10	–
338.15 K, x1 = 0.7142	–	1374.38 ± 10	27 ± 1.6
338.15 K, x1 = 0.725	–	1368.62 ± 10	–
338.15 K, x1 = 0.7592	–	1400.4 ± 10	–
338.15 K, x1 = 0.7694	2.29 ± 0.23	1411.68 ± 10	28.6 ± 1.7
338.15 K, x1 = 0.7832	2.42 ± 0.24	–	29.1 ± 1.8
338.15 K, x1 = 0.7845	–	1422.74 ± 10	–
348.15 K, x1 = 0.0911	–	945.43 ± 10	–
348.15 K, x1 = 0.1365	–	969.77 ± 10	–
348.15 K, x1 = 0.1798	–	994.4 ± 10	–
348.15 K, x1 = 0.1829	–	995.9 ± 10	–
348.15 K, x1 = 0.2293	–	1023.58 ± 10	–
348.15 K, x1 = 0.291	–	1059.58 ± 10	–
348.15 K, x1 = 0.3298	–	1084.14 ± 10	–
348.15 K, x1 = 0.3442	–	1093.18 ± 10	–
348.15 K, x1 = 0.3712	–	1110.71 ± 10	–
348.15 K, x1 = 0.3937	–	1125.23 ± 10	–
348.15 K, x1 = 0.4107	–	1147 ± 10	–
348.15 K, x1 = 0.421	–	1150.66 ± 10	–
348.15 K, x1 = 0.4479	–	1158.49 ± 10	–
348.15 K, x1 = 0.4707	–	1177.52 ± 10	–
348.15 K, x1 = 0.493	–	1192.77 ± 10	–
348.15 K, x1 = 0.5074	–	1201.8 ± 10	–
348.15 K, x1 = 0.5196	–	1210.75 ± 10	–
348.15 K, x1 = 0.5429	–	1227.92 ± 10	–
348.15 K, x1 = 0.5724	–	1254.23 ± 10	–
348.15 K, x1 = 0.5925	–	1263.87 ± 10	–
348.15 K, x1 = 0.6245	–	1286.78 ± 10	–
348.15 K, x1 = 0.6554	–	1310.01 ± 10	–
348.15 K, x1 = 0.6753	–	1324.98 ± 10	–
348.15 K, x1 = 0.6923	–	1337.69 ± 10	–
348.15 K, x1 = 0.7142	–	1366.2 ± 10	–
348.15 K, x1 = 0.725	–	1373 ± 10	–
348.15 K, x1 = 0.7592	–	1394.6 ± 10	–
348.15 K, x1 = 0.7694	–	1401.02 ± 10	–
348.15 K, x1 = 0.7845	–	1410.65 ± 10	–
